Laboratory results: patent publication US9029404B2, “Apoptosis-inducing agents for the treatment of cancer and immune and autoimmune diseases” (AbbVie Inc., priority 2008, dated 2015)

Molecular target: GST-Bcl-2 (Homo sapiens, UniProt P10415)
Assay: Time Resolved-Fluorescence Resonance Energy Transfer (TR-FRET) Bcl-2 binding assay
Settings: competition with F-Bak peptide probe (100 nM); GST-Bcl-2 1 nM; Tb-anti-GST 1 nM; 3 hours at room temperature; Wang's equation
Procedure: Determination of the utility of compounds having Formula (I) as binders to and inhibitors of anti-apoptotic Bcl-2 proteins was performed using the Time Resolved-Fluorescence Resonance Energy Transfer (TR-FRET) Assay. Tb-anti-GST antibody was purchased from Invitrogen (Catalog No. PV4216).
(§1) Representative compounds were serially diluted in dimethyl sulfoxide (DMSO) starting at 50 μM (2× starting concentration; 10% DMSO) and 10 μL were transferred into a 384-well plate. The samples are then mixed on a shaker for 1 minute and incubated for an additional 3 hours at room temperature. For each assay, the probe/antibody and protein/probe/antibody were included on each assay plate as negative and positive controls, respectively. Fluorescence was measured on the Envision (Perkin Elmer) using a 340/35 nm excitation filter and 520/525 (F-Bak peptide) and 495/510 nm (Tb-labeled anti-Histidine antibody) emission filters.
as §1, with “The” for “Representative compounds were serially diluted in dimethyl sulfoxide (DMSO) starting at 50 μM (2× starting concentration; 10% DMSO) and 10 μL were transferred into a 384-well plate. The”, “were” for “are”
The inhibition constant (Ki) is the dissociation constant of an enzyme-inhibitor complex or a protein/small molecule complex, wherein the small molecule is inhibiting binding of one protein to another protein. So a large Ki value indicates a low binding affinity and a small Ki value indicates a high binding affinity.

Chain of GST-Bcl-2 (P10415 whole entry): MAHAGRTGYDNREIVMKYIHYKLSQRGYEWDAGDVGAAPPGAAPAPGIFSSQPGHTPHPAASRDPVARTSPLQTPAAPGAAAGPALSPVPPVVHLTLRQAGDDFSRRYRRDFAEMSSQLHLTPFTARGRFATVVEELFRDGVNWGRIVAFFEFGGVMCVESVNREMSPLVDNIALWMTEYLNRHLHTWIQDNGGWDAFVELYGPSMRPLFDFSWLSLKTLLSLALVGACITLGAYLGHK

Point of comparison: `CC1(C)CCC(CN2CCN(c3ccc(C(=O)NS(=O)(=O)c4cnc(OCC5(F)CCC(C)(O)CC5)c(Cl)c4)c(Oc4cnc(N)c(Cl)c4)c3)CC2)=C(c2ccc(Cl)cc2)C1` (stereo not drawn) [Example 443, 2-[(6-amino-5-chloropyridin-3-yl)oxy]-N-({5-chloro-6-[(trans-1-fluoro-4-hydroxy-4-methylcyclohexyl)methoxy]pyridin-3-yl}sulfonyl)-4-(4-{[2-(4-chlorophenyl)-4,4-dimethylcyclohex-1-en-1-yl]methyl}piperazin-1-yl)benzamide], Ki 0.029 nM. Against it:
- Cn1c(=O)[nH]c2cccc(Oc3cc(N4CCN(CC5=C(c6ccc(Cl)cc6)CC(C)(C)CC5)CC4)ccc3C(=O)NS(=O)(=O)c3ccc(NCC4CN(C5CC5)CCO4)c([N+](=O)[O-])c3)c21 (centres unmarked) [Example 439, 4-(4-{[2-(4-chlorophenyl)-4,4-dimethylcyclohex-1-en-1-yl]methyl}piperazin-1-yl)-N-[(4-{[(4-cyclopropylmorpholin-2-yl)methyl]amino}-3-nitrophenyl)sulfonyl]-2-[(3-methyl-2-oxo-2,3-dihydro-1H-benzimidazol-4-yl)oxy]benzamide] — lower, < 0.01 nM
- CC1(C)CCC(CN2CCN(c3ccc(C(=O)NS(=O)(=O)c4cnc(OCC5CCC(C)(O)CC5)c(Cl)c4)c(Oc4cccc5[nH]nc(Cl)c45)c3)CC2)=C(c2ccc(Cl)cc2)C1 (stereo not drawn) [Example 446, N-({5-chloro-6-[(trans-4-hydroxy-4-methylcyclohexyl)methoxy]pyridin-3-yl}sulfonyl)-2-[(3-chloro-1H-indazol-4-yl)oxy]-4-(4-{[2-(4-chlorophenyl)-4,4-dimethylcyclohex-1-en-1-yl]methyl}piperazin-1-yl)benzamide] — 1.9-fold lower, 0.015 nM
- 2-[(6-amino-5-chloropyridin-3-yl)oxy]-4-(4-{[2-(4-chlorophenyl)-4,4-dimethylcyclohex-1-en-1-yl]methyl}piperazin-1-yl)-N-{[4-({[4-({[4-(methoxymethyl)cyclohexyl]methyl}amino)-3-nitrophenyl]sulfonyl}amino)-3-nitrophenyl]sulfonyl}benzamide [Example 454] — within 1.5-fold, 0.024 nM
- CC1(C)CCC(CN2CCN(c3ccc(C(=O)NS(=O)(=O)c4ccc(NCC5CCC(C)(O)CC5)c([N+](=O)[O-])c4)c(Oc4cnc(N)c(Cl)c4)c3)CC2)=C(c2ccc(Cl)cc2)C1 (stereo not drawn) [Example 437, 2-[(6-amino-5-chloropyridin-3-yl)oxy]-4-(4-{[2-(4-chlorophenyl)-4,4-dimethylcyclohex-1-en-1-yl]methyl}piperazin-1-yl)-N-[(4-{[(cis-4-hydroxy-4-methylcyclohexyl)methyl]amino}-3-nitrophenyl)sulfonyl]benzamide] — lower, < 0.01 nM
- CC1(C)CCC(CN2CCN(c3ccc(C(=O)NS(=O)(=O)c4cnc(NCC5CCOCC5)c([N+](=O)[O-])c4)c(Oc4cnc(N)c(Cl)c4)c3)CC2)=C(c2ccc(Cl)cc2)C1 [Example 449, 2-[(6-amino-5-chloropyridin-3-yl)oxy]-4-(4-{[2-(4-chlorophenyl)-4,4-dimethylcyclohex-1-en-1-yl]methyl}piperazin-1-yl)-N-({5-nitro-6-[(tetrahydro-2H-pyran-4-ylmethyl)amino]pyridin-3-yl}sulfonyl)benzamide] — lower, < 0.01 nM
- CC1(C)CCC(CN2CCN(c3ccc(C(=O)NS(=O)(=O)c4ccc(NCC5(F)CCOCC5)c([N+](=O)[O-])c4)c(Oc4ccc(F)c5[nH]ncc45)c3)CC2)=C(c2ccc(Cl)cc2)C1 [Example 423, 4-(4-{[2-(4-chlorophenyl)-4,4-dimethylcyclohex-1-en-1-yl]methyl}piperazin-1-yl)-2-[(7-fluoro-1H-indazol-4-yl)oxy]-N-[(4-{[(4-fluorotetrahydro-2H-pyran-4-yl)methyl]amino}-3-nitrophenyl)sulfonyl]benzamide] — lower, < 0.01 nM
- CN1CCC(C)(Nc2ccc(S(=O)(=O)NC(=O)c3ccc(N4CCN(CC5=C(c6ccc(Cl)cc6)CC(C)(C)CC5)CC4)cc3Oc3ccccc3Cl)cc2[N+](=O)[O-])CC1 [Example 168, 2-(2-chlorophenoxy)-4-(4-{[2-(4-chlorophenyl)-4,4-dimethylcyclohex-1-en-1-yl]methyl}piperazin-1-yl)-N-({4-[(1,4-dimethylpiperidin-4-yl)amino]-3-nitrophenyl}sulfonyl)benzamide] — 980-fold higher, 28.3 nM
- O=C(NS(=O)(=O)c1cnc(OCC2(F)CCOCC2)c(Cl)c1)c1ccc(N2CCN(CC3=C(c4ccc(Cl)cc4)CCN(C(CF)CF)C3)CC2)cc1Oc1cc2cc[nH]c2cc1F [Example 417, N-({5-chloro-6-[(4-fluorotetrahydro-2H-pyran-4-yl)methoxy]pyridin-3-yl}sulfonyl)-4-(4-{[4-(4-chlorophenyl)-1-(1,3-difluoropropan-2-yl)-1,2,5,6-tetrahydropyridin-3-yl]methyl}piperazin-1-yl)-2-[(6-fluoro-1H-indol-5-yl)oxy]benzamide] — 240-fold higher, 6.88 nM
- CC1(C)CCC(CN2CCN(c3ccc(C(=O)NS(=O)(=O)c4cnc(OC[C@H]5CC[C@H](O)CC5)c(Cl)c4)c(Oc4cc(F)cc5[nH]ncc45)c3)CC2)=C(c2ccc(Cl)cc2)C1 [Example 414, N-({5-chloro-6-[(trans-4-hydroxycyclohexyl)methoxy]pyridin-3-yl}sulfonyl)-4-(4-{[2-(4-chlorophenyl)-4,4-dimethylcyclohex-1-en-1-yl]methyl}piperazin-1-yl)-2-[(6-fluoro-1H-indazol-4-yl)oxy]benzamide] — 2.1-fold lower, 0.014 nM
- CC(C)(C)OC(=O)N1CCC(c2ccc(Cl)cc2)=C(CN2CCN(c3ccc(C(=O)NS(=O)(=O)c4cnc(OCC5(F)CCOCC5)c(Cl)c4)c(Oc4cc5cc[nH]c5cc4F)c3)CC2)C1 [Example 416, tert-butyl 5-[(4-{4-[({5-chloro-6-[(4-fluorotetrahydro-2H-pyran-4-yl)methoxy]pyridin-3-yl}sulfonyl)carbamoyl]-3-[(6-fluoro-1H-indol-5-yl)oxy]phenyl}piperazin-1-yl)methyl]-4-(4-chlorophenyl)-3,6-dihydropyridine-1(2H)-carboxylate] — 260-fold higher, 7.44 nM
- CC1(C)CCC(CN2CCN(c3ccc(C(=O)NS(=O)(=O)c4ccc(OCC5(F)CCOCC5)c(Cl)c4)c(Oc4cc5cc[nH]c5cc4F)c3)CC2)=C(c2ccc(Cl)cc2)C1 [Example 412, N-({3-chloro-4-[(4-fluorotetrahydro-2H-pyran-4-yl)methoxy]phenyl}sulfonyl)-4-(4-{[2-(4-chlorophenyl)-4,4-dimethylcyclohex-1-en-1-yl]methyl}piperazin-1-yl)-2-[(6-fluoro-1H-indol-5-yl)oxy]benzamide] — 39-fold higher, 1.12 nM
- CC1(C)CCC(CN2CCN(c3ccc(C(=O)NS(=O)(=O)c4ccc(NC[C@H]5CC[C@H](C#N)CC5)c([N+](=O)[O-])c4)c(Oc4cnc(N)c(Cl)c4)c3)CC2)=C(c2ccc(Cl)cc2)C1 [Example 401, Trans-2-[(6-amino-5-chloropyridin-3-yl)oxy]-4-(4-{[2-(4-chlorophenyl)-4,4-dimethylcyclohex-1-en-1-yl]methyl}piperazin-1-yl)-N-[(4-{[(4-cyanocyclohexyl)methyl]amino}-3-nitrophenyl)sulfonyl]benzamide] — within 1.5-fold, 0.035 nM
- CC1(C)CCC(CN2CCN(c3ccc(C(=O)NS(=O)(=O)c4cnc(OCC5CCC(C)(O)CC5)c(C#N)c4)c(Oc4cc(F)cc5[nH]ncc45)c3)CC2)=C(c2ccc(Cl)cc2)C1 (stereo not drawn) [Example 453, 4-(4-{[2-(4-chlorophenyl)-4,4-dimethylcyclohex-1-en-1-yl]methyl}piperazin-1-yl)-N-({5-cyano-6-[(trans-4-hydroxy-4-methylcyclohexyl)methoxy]pyridin-3-yl}sulfonyl)-2-[(6-fluoro-1H-indazol-4-yl)oxy]benzamide] — lower, < 0.01 nM
